# Measurements: PubChem BioAssay (NCI)
#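 48-hour exposure; five concentrations; linearly interpolated endpoints. Definition used: TGI = concentration required for complete inhibition of growth.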
# Legend:
# Assay in all cases: NCI anticancer screen, dose series, 48 h
# SK-MEL-28 melanoma = test system: SK-MEL-28 melanoma
# HOP-92 NSCLC = test system: HOP-92 NSCLC
# NCI-H460 lung = test system: NCI-H460 lung
# RXF 393 renal = test system: RXF 393 renal
# 786-0 renal = test system: 786-0 renal
# SK-MEL-2 melanoma = test system: SK-MEL-2 melanoma
# BT-549 breast = test system: BT-549 breast
# SK-MEL-5 melanoma = test system: SK-MEL-5 melanoma
# HS 578T breast = test system: HS 578T breast
# OVCAR-5 ovarian = test system: OVCAR-5 ovarian
# HCC-2998 colon = test system: HCC-2998 colon
# SF-268 CNS = test system: SF-268 CNS
# MDA-N = test system: MDA-N
# U251 CNS = test system: U251 CNS
# HCT-116 colon = test system: HCT-116 colon
# M14 melanoma = test system: M14 melanoma
# OVCAR-3 ovarian = test system: OVCAR-3 ovarian
# CCRF-CEM leukemia = test system: CCRF-CEM leukemia
# MALME-3M melanoma = test system: MALME-3M melanoma
# K-562 leukemia = test system: K-562 leukemia
# HT29 colon = test system: HT29 colon
# TK-10 renal = test system: TK-10 renal
# PC-3 prostate = test system: PC-3 prostate
# HL-60(TB) leukemia = test system: HL-60(TB) leukemia
# SN12C renal = test system: SN12C renal
# SK-OV-3 ovarian = test system: SK-OV-3 ovarian
# ACHN renal = test system: ACHN renal
# SNB-19 CNS = test system: SNB-19 CNS
# RPMI-8226 leukemia = test system: RPMI-8226 leukemia
# UACC-257 melanoma = test system: UACC-257 melanoma
# COLO 205 colon = test system: COLO 205 colon
# KM12 colon = test system: KM12 colon
# OVCAR-4 ovarian = test system: OVCAR-4 ovarian
# NCI-H226 lung = test system: NCI-H226 lung
# CAKI-1 renal = test system: CAKI-1 renal
# SF-539 CNS = test system: SF-539 CNS
# NCI/ADR-RES ovarian = test system: NCI/ADR-RES ovarian
# SW-620 colon = test system: SW-620 colon
# NCI-H522 lung = test system: NCI-H522 lung
# SR leukemia = test system: SR leukemia
# OVCAR-8 ovarian = test system: OVCAR-8 ovarian
# IGROV1 ovarian = test system: IGROV1 ovarian
# A549 NSCLC = test system: A549 NSCLC
# SNB-75 CNS = test system: SNB-75 CNS
# UO-31 renal = test system: UO-31 renal
# LOX IMVI melanoma = test system: LOX IMVI melanoma
# DU-145 prostate = test system: DU-145 prostate
# MDA-MB-435 = test system: MDA-MB-435
# A498 renal = test system: A498 renal
# EKVX NSCLC = test system: EKVX NSCLC
# UACC-62 melanoma = test system: UACC-62 melanoma
# NCI-H23 lung = test system: NCI-H23 lung
# HCT-15 colon = test system: HCT-15 colon
# MDA-MB-231 breast = test system: MDA-MB-231 breast
# SF-295 CNS = test system: SF-295 CNS
# MOLT-4 leukemia = test system: MOLT-4 leukemia
# T-47D breast = test system: T-47D breast
# MCF7 breast = test system: MCF7 breast
# HOP-62 NSCLC = test system: HOP-62 NSCLC
structure (smiles),measurement,setting,value
Cc1ccc(C(N)=Nc2ccccc2)cc1,TGI,SK-MEL-28 melanoma,> 100 µM
same,TGI,HOP-92 NSCLC,> 100 µM
same,TGI,NCI-H460 lung,> 100 µM
same,TGI,RXF 393 renal,> 100 µM
same,TGI,786-0 renal,> 100 µM
same,TGI,SK-MEL-2 melanoma,> 100 µM
same,TGI,BT-549 breast,> 100 µM
same,TGI,SK-MEL-5 melanoma,> 100 µM
same,TGI,HS 578T breast,> 100 µM
same,TGI,OVCAR-5 ovarian,> 100 µM
same,TGI,HCC-2998 colon,33.7 µM
same,TGI,SF-268 CNS,> 100 µM
same,TGI,MDA-N,> 100 µM
same,TGI,U251 CNS,> 100 µM
same,TGI,HCT-116 colon,> 100 µM
same,TGI,M14 melanoma,> 100 µM
same,TGI,OVCAR-3 ovarian,> 100 µM
same,TGI,CCRF-CEM leukemia,> 100 µM
same,TGI,MALME-3M melanoma,> 100 µM
same,TGI,K-562 leukemia,> 100 µM
same,TGI,HT29 colon,> 100 µM
same,TGI,TK-10 renal,> 100 µM
same,TGI,PC-3 prostate,> 100 µM
same,TGI,HL-60(TB) leukemia,> 100 µM
same,TGI,SN12C renal,> 100 µM
same,TGI,SK-OV-3 ovarian,> 100 µM
same,TGI,ACHN renal,> 100 µM
same,TGI,SNB-19 CNS,> 100 µM
same,TGI,RPMI-8226 leukemia,> 100 µM
same,TGI,UACC-257 melanoma,> 100 µM
same,TGI,COLO 205 colon,42.2 µM
same,TGI,KM12 colon,> 100 µM
same,TGI,OVCAR-4 ovarian,> 100 µM
same,TGI,NCI-H226 lung,> 100 µM
same,TGI,CAKI-1 renal,> 100 µM
same,TGI,SF-539 CNS,> 100 µM
same,TGI,NCI/ADR-RES ovarian,> 100 µM
same,TGI,SW-620 colon,> 100 µM
same,TGI,NCI-H522 lung,> 100 µM
same,TGI,SR leukemia,> 100 µM
same,TGI,OVCAR-8 ovarian,> 100 µM
same,TGI,IGROV1 ovarian,> 100 µM
same,TGI,A549 NSCLC,> 100 µM
same,TGI,SNB-75 CNS,> 100 µM
same,TGI,UO-31 renal,> 100 µM
same,TGI,LOX IMVI melanoma,> 100 µM
same,TGI,DU-145 prostate,> 100 µM
same,TGI,MDA-MB-435,> 100 µM
same,TGI,A498 renal,> 100 µM
same,TGI,EKVX NSCLC,> 100 µM
same,TGI,UACC-62 melanoma,> 100 µM
same,TGI,NCI-H23 lung,> 100 µM
same,TGI,HCT-15 colon,> 100 µM
same,TGI,MDA-MB-231 breast,> 100 µM
same,TGI,SF-295 CNS,> 100 µM
same,TGI,MOLT-4 leukemia,> 100 µM
same,TGI,T-47D breast,> 100 µM
same,TGI,MCF7 breast,> 100 µM
same,TGI,HOP-62 NSCLC,> 100 µM
COc1ccc2nc3c([N+](=O)[O-])ccc4c3c(c2c1)N(CCCN(C)C)C(=S)N4CCCN(C)C,TGI,SK-MEL-28 melanoma,37.4 µM
same,TGI,HOP-92 NSCLC,21.3 µM
same,TGI,NCI-H460 lung,9.75 µM
same,TGI,RXF 393 renal,22.9 µM
same,TGI,786-0 renal,15.7 µM
same,TGI,SK-MEL-2 melanoma,34.2 µM
same,TGI,BT-549 breast,30.8 µM
same,TGI,SK-MEL-5 melanoma,12.3 µM
same,TGI,HS 578T breast,31.1 µM
same,TGI,OVCAR-5 ovarian,34.6 µM
same,TGI,HCC-2998 colon,10.1 µM
same,TGI,SF-268 CNS,35.3 µM
same,TGI,MDA-N,21.3 µM
same,TGI,U251 CNS,20.2 µM
same,TGI,HCT-116 colon,15.9 µM
same,TGI,M14 melanoma,20.4 µM
same,TGI,OVCAR-3 ovarian,21.2 µM
same,TGI,CCRF-CEM leukemia,> 100 µM
same,TGI,MALME-3M melanoma,12.4 µM
same,TGI,K-562 leukemia,> 40 µM
same,TGI,HT29 colon,11.2 µM
same,TGI,TK-10 renal,23.8 µM
same,TGI,PC-3 prostate,18 µM
same,TGI,HL-60(TB) leukemia,> 100 µM
same,TGI,SN12C renal,19.2 µM
same,TGI,SK-OV-3 ovarian,34.4 µM
same,TGI,ACHN renal,17.9 µM
same,TGI,SNB-19 CNS,25.8 µM
same,TGI,RPMI-8226 leukemia,22.8 µM
same,TGI,UACC-257 melanoma,15.5 µM
same,TGI,COLO 205 colon,6.01 µM
same,TGI,KM12 colon,10.2 µM
same,TGI,OVCAR-4 ovarian,70.7 µM
same,TGI,NCI-H226 lung,22.4 µM
same,TGI,CAKI-1 renal,29.1 µM
same,TGI,SF-539 CNS,22 µM
same,TGI,NCI/ADR-RES ovarian,24.4 µM
same,TGI,SW-620 colon,16.4 µM
same,TGI,NCI-H522 lung,7.58 µM
same,TGI,SR leukemia,> 100 µM
same,TGI,OVCAR-8 ovarian,21.5 µM
same,TGI,IGROV1 ovarian,24.3 µM
same,TGI,A549 NSCLC,22.2 µM
same,TGI,SNB-75 CNS,29.3 µM
same,TGI,UO-31 renal,25.9 µM
same,TGI,LOX IMVI melanoma,14.4 µM
same,TGI,DU-145 prostate,20.2 µM
same,TGI,MDA-MB-435,19.1 µM
same,TGI,A498 renal,33.5 µM
same,TGI,EKVX NSCLC,31 µM
same,TGI,UACC-62 melanoma,34.4 µM
same,TGI,NCI-H23 lung,30 µM
same,TGI,HCT-15 colon,28.7 µM
same,TGI,MDA-MB-231 breast,22.6 µM
same,TGI,SF-295 CNS,19.5 µM
same,TGI,MOLT-4 leukemia,> 100 µM
same,TGI,T-47D breast,43 µM
same,TGI,MCF7 breast,19.2 µM
same,TGI,HOP-62 NSCLC,22.7 µM
